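These data come from cells grown in 96-well plates and exposed to compound for 48 hours at five concentrations. GI50 marks 50% less growth.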 Calls of active or inactive are those of the source. No stated cut-off is given here; in the data, active = GI50 up to about 1.1 µM and inactive = higher.
Columns and labels:
Assay in all cases: NCI tumour cell line growth inhibition, 48 h
DLD-1 = tested on: DLD-1
DMS-114 = tested on: DMS-114
DMS-273 = tested on: DMS-273
HOP-18 = tested on: HOP-18
KM-20L2 = tested on: KM-20L2
LXFL 529 = tested on: LXFL 529
XF498 = tested on: XF498
M19-MEL = tested on: M19-MEL
RXF 631 = tested on: RXF 631

Measured: GI50

COc1cc2c(cc1OC)C(=O)N1CCCC1C(=O)S2 (centres undefined)
inactive: DLD-1 > 100 µM | DMS-114 > 100 µM | DMS-273 > 100 µM | HOP-18 25.4 µM | KM-20L2 > 100 µM | LXFL 529 > 100 µM | XF498 92.7 µM

O=C1c2ccccc2C(=O)c2nc3ccc(Cl)cc3cc21
inactive: DLD-1 > 100 µM | DMS-114 > 100 µM | DMS-273 > 100 µM | KM-20L2 > 100 µM | LXFL 529 > 100 µM | M19-MEL > 100 µM | RXF 631 > 100 µM | XF498 > 100 µM

COc1ccc([C@H]2CC(=O)NCCCCN2)cc1
inactive: DLD-1 > 100 µM | DMS-114 > 100 µM | DMS-273 > 100 µM | HOP-18 > 100 µM | KM-20L2 > 100 µM | LXFL 529 > 100 µM | M19-MEL > 100 µM | XF498 > 100 µM

O=C1CCC(=O)c2c1c(O)c1ccncc1c2O
inactive: DLD-1 13.7 µM | DMS-114 12 µM | DMS-273 17.3 µM | HOP-18 26.9 µM | KM-20L2 20.9 µM | LXFL 529 16.6 µM | M19-MEL 2.92 µM | RXF 631 25.4 µM | XF498 18.4 µM

CCN(CC)CCn1c2ccccc2c(=O)c2c(OC)ccc(OC)c21
inactive: DMS-273 37.3 µM | KM-20L2 45.2 µM | LXFL 529 68.5 µM | M19-MEL 65 µM | XF498 87.5 µM

Cc1ccc(/N=N/c2ccc(N(CCC#N)CCC#N)cc2C)c(Br)c1
inactive: DLD-1 13.7 µM | DMS-114 12.8 µM | DMS-273 10 µM | HOP-18 15.6 µM | LXFL 529 20 µM | M19-MEL 25.4 µM | RXF 631 4.35 µM | XF498 9.08 µM

CC1COS(=O)O1 (centres undefined)
inactive: DLD-1 > 100 µM | DMS-114 > 100 µM | DMS-273 > 100 µM | HOP-18 > 100 µM | KM-20L2 > 100 µM | M19-MEL > 100 µM | XF498 > 100 µM

O=C1OC(=O)c2c1c(-c1ccccc1)cn2-c1ccc(Cl)cc1
inactive: DLD-1 > 100 µM | DMS-114 77.3 µM | DMS-273 8.77 µM | HOP-18 > 100 µM | KM-20L2 22.1 µM | LXFL 529 5.94 µM | M19-MEL 21.1 µM | RXF 631 > 100 µM | XF498 > 100 µM

N/N=C(\Cc1ccccc1)NN=C(N)N
inactive: DLD-1 > 100 µM | HOP-18 > 100 µM | LXFL 529 > 100 µM | M19-MEL > 100 µM | RXF 631 > 100 µM | XF498 > 100 µM

O=C(c1nc2ccc([N+](=O)[O-])cc2nc1O)C(O)c1ccc2c(c1)OCO2 (centres undefined)
inactive: DLD-1 > 100 µM | DMS-114 29.5 µM | DMS-273 > 100 µM | HOP-18 > 100 µM | KM-20L2 47 µM | LXFL 529 71.8 µM | M19-MEL > 100 µM

COc1nc(NC2OC(COC(C)=O)C(OC(C)=O)C(OC(C)=O)C2OC(C)=O)c(-c2csc(N)n2)c(=O)n1C (centres undefined)
inactive: DLD-1 52.7 µM | DMS-114 53.5 µM | HOP-18 39.4 µM | KM-20L2 > 100 µM | LXFL 529 70 µM | M19-MEL 36.5 µM

CC(C)CC(NC(=O)OC(C)(C)C)C(=O)Nc1ccc(Nc2nc(F)nc(-c3c4ccccc4cn3C)n2)cc1 (centres undefined)
inactive: DLD-1 > 37.2 µM | DMS-114 21.8 µM | DMS-273 42.6 µM | HOP-18 > 100 µM | KM-20L2 37.6 µM | LXFL 529 77.3 µM | M19-MEL 97.9 µM | XF498 > 85.1 µM

N#C/C(=C\c1ccc2ccccc2c1)c1ccccc1
inactive: DLD-1 25.7 µM | DMS-273 14 µM | HOP-18 22.1 µM | KM-20L2 15.6 µM | LXFL 529 29.4 µM | M19-MEL 26.6 µM | RXF 631 30.5 µM

COC(=O)C(C(=O)C(=O)Nc1nc2ccc([N+](=O)[O-])cc2s1)c1nc2ccc(Cl)cc2nc1O (centres undefined)
inactive: DLD-1 > 100 µM | DMS-114 > 100 µM | DMS-273 > 100 µM | HOP-18 > 100 µM | KM-20L2 > 100 µM | LXFL 529 > 100 µM | M19-MEL > 100 µM | RXF 631 > 100 µM

COC(=O)C1=NC(=S)NC(c2ccccc2)C1c1nc2ccccc2o1 (centres undefined)
inactive: DLD-1 > 50 µM | DMS-114 > 50 µM | HOP-18 > 50 µM | KM-20L2 > 50 µM | LXFL 529 > 50 µM | M19-MEL > 50 µM | XF498 > 50 µM

O=C(N/C(=C\c1ccc(Oc2ccc(Cl)c(Cl)c2)cc1)c1nc2ccccc2[nH]1)c1ccccc1
inactive: DLD-1 17.7 µM | DMS-273 21.2 µM | KM-20L2 17.7 µM | LXFL 529 12.5 µM | M19-MEL 27.6 µM | XF498 16.8 µM

CN(C(=O)C12C3C4C1C1C2C3C41C(N)=O)C(C)(C)C (centres undefined)
inactive: DMS-114 > 100 µM | DMS-273 > 100 µM | LXFL 529 > 100 µM | M19-MEL > 100 µM | XF498 > 100 µM

Cc1ccc(NC(=O)CCC(CC(=O)C(C)(C)C)=NNC(=O)C(=O)NN)cc1C
inactive: DLD-1 > 100 µM | DMS-273 > 100 µM | HOP-18 > 100 µM | KM-20L2 > 100 µM | LXFL 529 > 100 µM | M19-MEL > 100 µM | XF498 64.4 µM

O=C(/C=C/c1ccc(Cl)c(Cl)c1)c1cccc2ccccc12
inactive: DLD-1 2.49 µM | DMS-114 2.3 µM | DMS-273 4.05 µM | HOP-18 17.3 µM | KM-20L2 5.22 µM | LXFL 529 2.28 µM | M19-MEL 11.7 µM | RXF 631 17 µM

O=C1C=CC(=O)c2c1cc1ccccc1c2O
inactive: DLD-1 1.66 µM | DMS-273 12.7 µM | HOP-18 18.2 µM | KM-20L2 19 µM | LXFL 529 1.9 µM | M19-MEL 4.01 µM | XF498 3.01 µM

CC(=O)OCC1=CC2CCC3C(C)(CCC[C@]3(C)COC(C)=O)C23CC[C@H]1C3 (some centres undefined)
inactive: DLD-1 51.6 µM | DMS-114 12.9 µM | DMS-273 29.6 µM | HOP-18 > 100 µM | KM-20L2 41 µM | LXFL 529 29.2 µM | M19-MEL 34.5 µM | RXF 631 > 100 µM | XF498 33.8 µM

CCCCCCCCCCCCn1[nH]c(C)c(C(=S)SCCCCCCCC)c1=O
inactive: DLD-1 19.6 µM | DMS-114 26.7 µM | DMS-273 99.5 µM | HOP-18 61.5 µM | KM-20L2 36.8 µM | LXFL 529 53.2 µM | M19-MEL 23.6 µM | RXF 631 75.7 µM | XF498 > 100 µM

COc1nc(C(Cl)(Cl)Cl)c(Cl)c(OC)c1Cl [PENCLOMEDINE]
inactive: DLD-1 42.6 µM | DMS-114 25.4 µM | DMS-273 40.4 µM | HOP-18 36.1 µM | KM-20L2 47 µM | M19-MEL 31.5 µM | RXF 631 17.6 µM | XF498 25.3 µM

— ChEMBL document CHEMBL1201862, “PubChem BioAssay data set” (2004)
